Assay results taken from US11091478B2 (Fochon Pharmaceuticals, Ltd., priority 2017, dated 2021).

Key:
[1] = system: DOHH2 cells; assay: Cell proliferation assay (MTS), DOHH2 cells, 120 h; format: cell-based; settings: Homo sapiens, DOHH-2, 120 h
How it was run: (§1)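 Cells in RPMI-1640 with 10% FBS were seeded at 5000/well, left overnight at 37° C., 5% CO2, then exposed to compound at 10000 down to 1.5 nM (nine concentrations) for 72 h (RS4;11) or 120 h (DOHH2). Viability was read by MTS, 2 h, absorbance at 490/650 nm; IC50 calculated.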

[2] = system: RS4;11 cells; assay: Cell proliferation assay (MTS), RS4;11 cells, 72 h; format: cell-based; settings: Homo sapiens, RS4-11, 72 h
How it was run: as §1

Row | Structure (SMILES) | IC50 [1] [nM] | IC50 [2] [nM]
1 | CC1(C)CCC(CN2CCN(c3ccc(C(=O)NS(=O)(=O)c4cc5c(c([N+](=O)[O-])c4)N[C@@H](CNC(=O)C4CCOCC4)CO5)c(Oc4cnc5[nH]ccc5c4)c3)CC2)=C(c2ccc(Cl)cc2)C1 [Example 2-54, (S)-N-((7-(N-(2-((1H-pyrrolo[2,3-b]pyridin-5-yl)oxy)-4-(4-((4′-chloro-5,5-dimethyl-3,4,5,6-tetrahydro-[1,1′-biphenyl]-2-yl)methyl)piperazin-1-yl)benzoyl)sulfamoyl)-5-nitro-3,4-dihydro-2H-benzo[b][1,4]oxa-zin-3-yl)meth-yl)tetrahydro-2H-pyran-4-carboxamide] | 134 | 61
2 | CC1(C)CCC(CN2CCN(c3ccc(C(=O)NS(=O)(=O)c4cc5c(c([N+](=O)[O-])c4)N[C@@H](CCNC(=O)C4CCOCC4)CO5)c(Oc4cnc5[nH]ccc5c4)c3)CC2)=C(c2ccc(Cl)cc2)C1 [Example 2-56, (S)-N-(2-(7-(N-(2-((1H-pyrrolo[2,3-b]pyridin-5-yl)oxy)-4-(4-((4′-chloro-5,5-dimethyl-3,4,5,6-tetrahydro-[1,1′-biphenyl]-2-yl)meth-yl)piperazin-1-yl)benzoyl)sulfamoyl)-5-nitro-3,4-dihydro-2H-benzo[b][1,4]oxazin-3-yl)ethyl)tetrahydro-2H-pyran-4-carboxamide] | 571 | 41
3 | COC(=O)NC[C@H]1COc2cc(S(=O)(=O)NC(=O)c3ccc(N4CCN(CC5=C(c6ccc(Cl)cc6)CC(C)(C)CC5)CC4)cc3Oc3cnc4[nH]ccc4c3)cc([N+](=O)[O-])c2N1 [Example 2-60, methyl (S)-((7-(N-(2-((1H-pyrrolo[2,3-b]pyridin-5-yl)oxy)-4-(4-((4′-chloro-5,5-dimethyl-3,4,5,6-tetrahydro-[1,1′-biphenyl]-2-yl)methyl)piperazin-1-yl)benzoyl)sulfamoyl)-5-nitro-3,4-dihydro-2H-benzo[b][1,4]oxazin-3-yl)meth-yl)carbamate] | 82 | 1
4 | CC1(C)CCC(CN2CCN(c3ccc(C(=O)NS(=O)(=O)c4cc5c(c([N+](=O)[O-])c4)N[C@@H](CNC(=O)OC4CCOCC4)CO5)c(Oc4cnc5[nH]ccc5c4)c3)CC2)=C(c2ccc(Cl)cc2)C1 [Example 2-61, tetrahydro-2H-pyran-4-yl (S)-((7-(N-(2-((1H-pyrrolo[2,3-b]pyridin-5-yl)oxy)-4-(4-((4′-chloro-5,5-dimethyl-3,4,5,6-tetrahydro-[1,1′-biphenyl]-2-yl)methyl)piperazin-1-yl)benzoyl)sulfamoyl)-5-nitro-3,4-dihydro-2H-benzo[b][1,4]oxazin-3-yl)methyl)carbamate] | 444 | 48
5 | COC(=O)NCC[C@@H]1COc2cc(S(=O)(=O)NC(=O)c3ccc(N4CCN(CC5=C(c6ccc(Cl)cc6)CC(C)(C)CC5)CC4)cc3Oc3cnc4[nH]ccc4c3)cc([N+](=O)[O-])c2N1 [Example 2-63, methyl (R)-(2-(7-(N-(2-((1H-pyrrolo[2,3-b]pyridin-5-yl)oxy)-4-(4-((4′-chloro-5,5-dimethyl-3,4,5,6-tetrahydro-[1,1′-biphenyl]-2-yl)methyl)piperazin-1-yl)benzoyl)sulfamoyl)-5-nitro-3,4-dihydro-2H-benzo[b][1,4]oxazin-3-yl)ethyl)carbamate] | 64 | 12
6 | CC1(C)CCC(CN2CCN(c3ccc(C(=O)NS(=O)(=O)c4cc5c(c([N+](=O)[O-])c4)N[C@H](CCS(C)(=O)=O)CO5)c(Oc4cnc5[nH]ccc5c4)c3)CC2)=C(c2ccc(Cl)cc2)C1 [Example 2-64, (R)-2-((1H-pyrrolo[2,3-b]pyriidn-5-yl)oxy)-4-(4-((4′-chloro-5,5-dimethyl-3,4,5,6-tetra-hydro-[1,1′-biphenyl]-2-yl)methyl)piperazin-1-yl)-N-((3-(2-(methylsulfonyl)ethyl)-5-nitro-3,4-dihydro-2H-benzo[b][1,4]oxazin-7-yl)sulfonyl)benzamide] | 70 | 25
7 | COCC[C@@H]1COc2cc(S(=O)(=O)NC(=O)c3ccc(N4CCN(CC5=C(c6ccc(Cl)cc6)CC(C)(C)CC5)CC4)cc3Oc3cnc4[nH]ccc4c3)cc([N+](=O)[O-])c2N1 [Example 2-65, (R)-2-((1H-pyrrolo[2,3-b]pyridin-5-yl)oxy)-4-(4-((4′-chloro-5,5-dimethyl-3,4,5,6-tetra-hydro-[1,1′-biphenyl]-2-yl)methyl)piperazin-1-yl)-N-((3-(2-methoxyethyl)-5-nitro-3,4-dihydro-2H-benzo[b][1,4]oxazin-7-yl)sulfonyl)benzamide] | 14 | 20
8 | CC1(C)CCC(CN2CCN(c3ccc(C(=O)NS(=O)(=O)c4cc5c(c([N+](=O)[O-])c4)N[C@@H](CNS(C)(=O)=O)CO5)c(Oc4cnc5[nH]ccc5c4)c3)CC2)=C(c2ccc(Cl)cc2)C1 [Example 2-66, (S)-2-((1H-pyrrolo[2,3-b]pyridin-5-yl)oxy)-4-(4-((4′-chloro-5,5-dimethyl-3,4,5,6-tetra-hydro-[1,1′-biphenyl]-2-yl)methyl)piperazin-1-yl)-N-((3-(methylsulfonamidomethyl)-5-nitro-3,4-dihydro-2H-benzo[b][1,4]oxazin-7-yl)sulfonyl)benzamide] | 13 | 18
9 | CC1(C)CCC(CN2CCN(c3ccc(C(=O)NS(=O)(=O)c4cc5c(c([N+](=O)[O-])c4)N[C@H](CCNS(C)(=O)=O)CO5)c(Oc4cnc5[nH]ccc5c4)c3)CC2)=C(c2ccc(Cl)cc2)C1 [Example 2-68, (R)-2-((1H-pyrrolo[2,3-b]pyridin-5-yl)oxy)-4-(4-((4′-chloro-5,5-dimethyl-3,4,5,6-tetra-hydro-[1,1′-biphenyl]-2-yl)methyl)piperazin-1-yl)-N-((3-(2-(methysulfonamido)ethyl)-5-nitro-3,4-dihydro-2H-benzo[b][1,4]oxa-zin-7-yl)sulfonyl)benzamide] | 83 | 26
10 | CC1(C)CCC(CN2CCN(c3ccc(C(=O)NS(=O)(=O)c4cc5c(c([N+](=O)[O-])c4)N[C@H](CN=S(C)(C)=O)CO5)c(Oc4cnc5[nH]ccc5c4)c3)CC2)=C(c2ccc(Cl)cc2)C1 [Example 2-70, (R)-2-((1H-pyrrolo[2,3-b]pyridin-5-yl)oxy)-4-(4-((4′-chloro-5,5-dimethyl-3,4,5,6-tetra-hydro-[1,1′-biphenyl]-2-yl)methyl)piperazin-1-yl)-N-((3-(((dimethyl(oxo)-λ^6-sulfanyl-idene)amino)methyl)-5-nitro-3,4-dihydro-2H-benzo[b][1,4]oxazin-7-yl)sulfonyl)benza-mide] | 28 | 5
11 | CC1(C)CCC(CN2CCN(c3ccc(C(=O)NS(=O)(=O)c4cc5c(c([N+](=O)[O-])c4)N[C@H](CN=S4(=O)CCCC4)CO5)c(Oc4cnc5[nH]ccc5c4)c3)CC2)=C(c2ccc(Cl)cc2)C1 [Example 2-71, (R)-2-((1H-pyrrolo[2,3-b]pyridin-5-yl)oxy)-4-(4-((4′-chloro-5,5-dimethyl-3,4,5,6-tetra-hydro-[1,1′-biphenyl]-2-yl)methyl)piperazin-1-yl)-N-((5-nitro-3-(((1-oxidotetrahydro-1λ^6-thiophen-1-ylidene)amino)methyl)-3,4-dihydro-2H-benzo[b][1,4]oxazin-7-yl)sulfo-nyl)benzamide] | 43 | 58
12 | CC1(C)CCC(CN2CCN(c3ccc(C(=O)NS(=O)(=O)c4cc5c(c([N+](=O)[O-])c4)N[C@H](CN=S4(=O)CCOCC4)CO5)c(Oc4cnc5[nH]ccc5c4)c3)CC2)=C(c2ccc(Cl)cc2)C1 [Example 2-72, (R)-2-((1H-pyrrolo[2,3-b]pyridin-5-yl)oxy)-4-(4-((4′-chloro-5,5-dimethyl-3,4,5,6-tetra-hydro-[1,1′-biphenyl]-2-yl)methyl)piperazin-1-yl)-N-((5-nitro-3-(((4-oxido-1,4λ^6-oxa-thian-4-ylidene)amino)methyl)-3,4-dihydro-2H-benzo[b][1,4]oxazin-7-yl)sulfonyl)ben-zamide] | 24 | 6
13 | CC1(C)CCC(CN2CCN(c3ccc(C(=O)NS(=O)(=O)c4cc5c(c([N+](=O)[O-])c4)N[C@H](CCN=S4(=O)CCCC4)CO5)c(Oc4cnc5[nH]ccc5c4)c3)CC2)=C(c2ccc(Cl)cc2)C1 [Example 2-73, (R)-2-((1H-pyrrolo[2,3-b]pyridin-5-yl)oxy)-4-(4-((4′-chloro-5,5-dimethyl-3,4,5,6-tetra-hydro-[1,1′-biphenyl]-2-yl)methyl)piperazin-1-yl)-N-((5-nitro-3-(2-((1-oxidotetrahydro-1λ^6-thiophen-1-ylidene)amino)ethyl)-3,4-dihydro-2H-benzo[b][1,4]oxazin-7-yl)sulfonyl)benzamide] | 69 | 79
14 | CC1(C)CCC(CN2CCN(c3ccc(C(=O)NS(=O)(=O)c4cc5c(c([N+](=O)[O-])c4)N[C@H](CCN=S4(=O)CCOCC4)CO5)c(Oc4cnc5[nH]ccc5c4)c3)CC2)=C(c2ccc(Cl)cc2)C1 [Example 2-74, (R)-2-((1H-pyrrolo[2,3-b]pyridin-5-yl)oxy)-4-(4-((4′-chloro-5,5-dimethyl-3,4,5,6-tetra-hydro-[1,1′-biphenyl]-2-yl)methyl)piperazin-1-yl)-N-((5-nitro-3-(2-((4-oxido-1,4λ^6-ox-athian-4-lidene)amino)ethyl)-3,4-dihydro-2H-benzo[b][1,4]oxazin-7-yl)sulfonyl)ben-zamide] | 108 | 64
15 | CC1(C)CCC(CN2CCN(c3ccc(C(=O)NS(=O)(=O)c4cc5c(c([N+](=O)[O-])c4)N[C@@H](CN=S(C)(C)=O)CO5)c(Oc4cnc5[nH]ccc5c4)c3)CC2)=C(c2ccc(Cl)cc2)C1 [Example 2-75, (S)-2-((1H-pyrrolo[2,3-b]pyridin-5-yl)oxy)-4-(4-((4′-chloro-5,5-dimethyl-3,4,5,6-tetra-hydro-[1,1′-biphenyl]-2-yl)methyl)piperazin-1-yl)-N-((3-(((dimethyl(oxo)-λ^6-sulfanyl-idene)amino)methyl)-5-nitro-3,4-dihydro-2H-benzo[b][1,4]oxazin-7-yl)sulfonyl)benza-mide] | 64 | 1
